One data set deals with MC4R (Homo sapiens, UniProt P32245). Particulars: cited from earlier work.
Data set [1] concerns the target T1, α-Galactosidase A (α-Gal A) (Homo sapiens, UniProt P06280).
T1 sequence (P06280 32-429): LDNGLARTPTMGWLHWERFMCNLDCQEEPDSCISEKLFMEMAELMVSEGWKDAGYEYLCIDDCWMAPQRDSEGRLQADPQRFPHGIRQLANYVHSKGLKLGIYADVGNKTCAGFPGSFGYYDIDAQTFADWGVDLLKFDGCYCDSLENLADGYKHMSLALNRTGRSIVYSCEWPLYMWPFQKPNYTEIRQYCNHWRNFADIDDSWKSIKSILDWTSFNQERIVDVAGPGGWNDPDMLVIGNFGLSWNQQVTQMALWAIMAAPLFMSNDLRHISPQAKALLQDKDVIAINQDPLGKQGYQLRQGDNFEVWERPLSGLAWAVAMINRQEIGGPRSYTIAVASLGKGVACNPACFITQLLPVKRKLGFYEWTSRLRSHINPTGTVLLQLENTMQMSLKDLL
On the set-up: host or cells: normal lymphoblasts (endogenous enzyme). Particulars: normal lymphoblasts cultured in vitro with DGJ; cited from earlier work.

A short description of data set [2]: Phase I study of DGJ, pharmacokinetics in plasma and urine. Format: in vivo, human. Here is the method:
(§1) Subjects were housed in the treatment facility from 14 hours prior to dosing until 24 hours after dosing. Meals were controlled by schedule and subjects remained abulatory for 4 hours post drug administration.
Blood samples (10 mL each) were collected in blood collection tubes containing EDTA before dosing and at the following times thereafter: 0.25, 0.5, 0.75, 1, 1.5, 2, 3, 4, 5, 6, 7, 8, 9, 10, 11 and 12 hours. Blood samples were cooled in an ice bath and centrifuged under refrigeration as soon as possible. Plasma samples were divided into two aliquots and stored at […]. pending assay. At the end of the study, all samples were transferred to MDS Pharma Services Analytical Laboratories (Lincoln) for analysis.
Pharmacokinetic parameters were summarised by treatment group using descriptive statistics (arithmetic means, standard deviations, coefficients of variation, sample size, minimum, maximum and median).

The target in data set [3] is T1, α-Galactosidase A (α-Gal A). The experiment in a line: Phase I study of DGJ, WBC α-Gal A enzymatic activity. It is filed as in vivo. The arrangement: α-Gal A activity was calculated in white blood cells (WBC) before dosing began; endogenous in cells. The protocol:
as §1
Blood samples (10 mL each) were collected in blood collection tubes containing EDTA and WBC extracted before dosing and at the following times thereafter: 100 hours, 150 hours, and 336 hours. Samples were treated as described above, and WBC α-Gal A enzymatic activity levels were determined.

Data set [4] is described as follows: Phase I study of DGJ, safety and tolerability. It is filed as in vivo, human. Here is the method:
as §1
Safety was determined by evaluating vital signs, laboratory parameters (serum chemistry, hematology, and urinalysis), ECGs, physical examination and by recording adverse events during the Treatment Period.
Safety data including laboratory evaluations, physical exams, adverse events, ECG monitoring and vital signs assessments were summarized by treatment group and point of time of collection. Descriptive statistics (arithmetic mean, standard deviation, median, minimum and maximum) were calculated for quantitative safety data as well as for the difference to baseline. Frequency counts were compiled for classification of qualitative safety data.
Adverse events were coded using the MedDRA version 7.0 dictionary and summarized by treatment for the number of subjects reporting the adverse event and the number of adverse events reported. A by-subject adverse event data listing including verbatim term, coded term, treatment group, severity, and relationship to treatment was provided. Concomitant medications and medical history were listed by treatment.

SMILES strings stand for the structures. Values joined by “and” are separate entries in the source; they are usually repeats but may differ in a detail not shown here. Identical values can stand only once.

MC4R, sequence (P32245 whole entry): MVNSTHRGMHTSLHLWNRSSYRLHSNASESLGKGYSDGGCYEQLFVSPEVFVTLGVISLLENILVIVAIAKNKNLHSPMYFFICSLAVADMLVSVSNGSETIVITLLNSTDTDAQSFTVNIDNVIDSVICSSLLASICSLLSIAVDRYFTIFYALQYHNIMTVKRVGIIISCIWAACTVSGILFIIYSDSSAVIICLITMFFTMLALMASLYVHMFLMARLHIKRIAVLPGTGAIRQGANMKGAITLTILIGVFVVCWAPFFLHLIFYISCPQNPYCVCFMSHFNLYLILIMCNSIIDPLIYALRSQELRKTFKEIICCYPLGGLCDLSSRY

Consider `O=C(N[C@H](Cc1ccc(Cl)cc1)C(=O)N1CCN(c2ccccc2CN2CCCC2)CC1)[C@H]1Cc2ccccc2CN1` [Compound 2], for which the EC50 on MC4R is 39 nM.
Regarding `OC[C@H]1NC[C@H](O)[C@@H](O)[C@H]1O` [DGJ, 1-deoxygalactonojirimycin], the “increase of α-Gal A activity” value in data set [1] is on record as 30%. The tmax is listed as 2.9 ± 0.4 h in data set [2] (50 mg b.i.d. oral, Day 1); 2.5 ± 0.4 h in data set [2] (50 mg b.i.d. oral, Day 7); 3.1 ± 0.4 h in data set [2] (150 mg b.i.d. oral, Day 1); 2.9 ± 0.4 h in data set [2] (150 mg b.i.d. oral, Day 7). Besides, the t½ in data set [2] (50 mg b.i.d. oral, Day 1) was 2.5 h; in data set [2] (150 mg b.i.d. oral, Day 1) it was 2.4 h. For the same molecule, the “12 h cumulative renal excretion” value was 16% and 16 ± 6% in data set [2] (50 mg b.i.d. oral, Day 1, 12-hour post dose period); 48% and 48 ± 7% in data set [2] (50 mg b.i.d. oral, Day 7, 12-hour post dose period); 42% and 42 ± 7% in data set [2] (150 mg b.i.d. oral, Day 1, 12-hour post dose period); 60% and 60 ± 5% in data set [2] (150 mg b.i.d. oral, Day 7, 12-hour post dose period). The Cmax in data set [2] (50 mg b.i.d. oral, Day 1, plasma) came to 2.3 ± 0.3 µM; in data set [2] (50 mg b.i.d. oral, Day 7, plasma), 39 ± 0.5 µM; in data set [2] (150 mg b.i.d. oral, Day 1, plasma), 11.3 ± 1.5 µM; in data set [2] (150 mg b.i.d. oral, Day 7, plasma) it was 10.8 ± 1.4 µM. The Cmin in data set [2] (50 mg b.i.d. oral, Day 7) came out at 0.4 ± 0.03 µM; in data set [2] (150 mg b.i.d. oral, Day 7), 1.2 ± 0.1 µM. Moreover, the “time of peak concentrations, on average” value in data set [2] (all dose levels) is reported as “approximately 3 hours”. In addition, in data set [2] (doses increased from 50 mg to 150 mg), the “dose dependence of Cmax” value is given as “increased in a dose-proportional manner”. The “inhibition of WBC α-Gal A enzymatic activity” value in data set [3] (50 mg b.i.d. or 150 mg b.i.d.) is recorded as “did not inhibit”. The “WBC α-Gal A enzymatic activity, % pre-dose levels” value is 130% in data set [3] (50 mg b.i.d., 150 hours); 145% in data set [3] (50 mg b.i.d., 336 hours); 150% in data set [3] (150 mg b.i.d., 100 hours); 185% in data set [3] (150 mg b.i.d., 150 hours); 185% in data set [3] (150 mg b.i.d., 336 hours). For the same molecule, the safety and tolerability result in data set [4] (50 mg b.i.d. and 150 mg b.i.d., healthy male subjects) is “safe and well tolerated”. Further, the “adverse events (AEs)” value in data set [4] (50 mg b.i.d. or 150 mg b.i.d., healthy male subjects) is recorded as “no subject presented with AEs”. In addition, in data set [4] (throughout the study), the “vital sign, ECG, or physical examination parameter” value is recorded as “No clinically relevant abnormality”.

One may read the EC50 as the midpoint of the concentration-response curve. In general, t½ refers to the time needed for the level to fall by half in the phase considered. Higher therefore signals slow decline. One may read the Cmax as the peak of the concentration-time curve.

Values taken from US9937165B2, “Pharmacological chaperones for treating obesity” (Amicus Therapeutics, Inc., priority 2005, dated 2018).
